# Test results published in patent US20250268863A1, “DOSING REGIMENS FOR TREATMENT OF PATIENTS WITH LOCALLY ADVANCED SQUAMOUS CELL CARCINOMA” (priority 2019, published 2025).
# Entries after “also recorded” stand apart in the source; their conditions may differ.
# Key:
# [1] = tested on: locally advanced squamous cell cancer of the head and neck (LA-SCCHN); assay: Dose escalation of Debio 1143 with concurrent chemoradiotherapy (MTD determination); format: in vivo
# Method: Additionally, for each Debio 1143 dose level (DL) and overall, according to variant 1 of this example: • (a) the safety profile of Debio 1143 in combination with concurrent CRT was assessed; • (b) the antitumour activity of the recommended dose (RD) of Debio 1143 in combination with concurrent CRT in the study population was evaluated. • In a variant 2 of this example, the following items (c) to (f) were explored in addition to items (a) and (b) of variant 1: • (c) the pharmacokinetics (PK) of Debio 1143 and cisplatin when administered in combination with radiation therapy, and explore the potential for drug-drug interactions of Debio 1143 in combination with cisplatin was explored; • (d) the pharmacodynamic (PDy) biomarkers of Debio 1143 activity in combination with concurrent CRT were explored; • (e) the PK/PDy, PK/efficacy, PK/safety, PDy/efficacy and PDy/safety relationships and pharmacogenetic (PGx) factors that may affect Debio 1143 PK were explored; and • (f) the pharmacogenomic and tumour PGx factors were explored.
# During the screening phase, subjects were evaluated and staged using the American Joint Committee on Cancer (“AJCC”) […] staging system.
# Escalating doses of Debio 1143 were added to CRT. […] The starting dose of Debio 1143 in this combination study was 100 mg/day over 14 days every 21 days. […]
# [2] = tested on: locally advanced squamous cell cancer of the head and neck (LA-SCCHN); assay: Double-blind randomised placebo-controlled Phase II study of Debio 1143 + CRT: efficacy; format: in vivo, human; conditions: for Locoregional control rate at 18 months after CRT: 200 mg/day days 1-14 q3w + cisplatin CRT, N = 48 (ITT); for complete response / partial response: of 48 patients
# Method: 96 patients were randomized 95 were treated.
# The primary endpoint to the study was locoregional control rate (LRC) at 18 months after CRT. Key secondary endpoints included PFS, duration of LRC, overall survival, […] and CR at 3 and 6 months after CRT completion.
# The main inclusion criteria were as follows: • Previously untreated, inoperable (unresectable) Stage III, Stage IVA, or Stage IVB as per AJCC TNM staging version 7.0 (2010) • LA-SCCHN of the oral cavity, hypopharynx, larynx, or oropharynx (HPV/p16 both negative or positive) • Heavy smoking history (>10 pack-years) • Negative HIV/HBV/HCV • Performance Status by Eastern Cooperative Oncology Group (ECOG)=0 or 1.
# The main exclusion criteria were as follows: • Non-compensated liver cirrhosis (Child-Pugh class C) • >75 years • Non-cisplatin eligible.
# A multicentre, phase 2, double-blind, randomised, placebo-controlled study was conducted to evaluate the safety and efficacy of oral Debio 1143 at 200 mg/day on Days 1-14 of 21-Day cycles combined with concomitant cisplatin-based chemoradiotherapy in patients with LA-SCCHN. Male and female patients were eligible if they were aged 18 to 75 years with histologically confirmed LA-SCCHN and fulfilled the following criteria: previously untreated, stage III, IVa or IVb (according to the American Joint Committee on Cancer 2010 staging system [AJCC TNM v7.0 2010]) of one or more of the following sites: oral cavity, oropharynx, hypopharynx and larynx and with T 2-4, N0-3, M0 measurable disease according to Response Evaluation Criteria in Solid Tumours (RECIST), version 1⋅1. Patients were to have a smoking history of more than 10 pack-years, and no medical history of hepatitis B or hepatitis C. For patients with oropharyngeal cancer, tumour HPV-status was determined by the presence of p16 using immunohistochemistry. Other inclusion criteria included: Eastern Cooperative Oncology Group (ECOG) performance status of 0 or 1, no clinically significant cardiac disease and no clinically significant hearing impairment that would have contraindicated the use of chemotherapy with HD-cisplatin.
# Exclusion criteria included nasopharyngeal, paranasal sinuses, nasal cavity tumours or thyroid cancers, squamous cell cancer involving cervical neck nodes but from unknown primary site, unknown lymph node status, metastatic disease, any prior or current treatment for invasive head and neck cancer of any kind (including, but not limited to, prior tyrosine kinase inhibitors, prior neoadjuvant therapy, prior surgical resection, or use of any investigational agent), weight loss of >10% during the previous month, non-compensated liver cirrhosis, gastro-intestinal disorders that could affect drug absorption, concurrent treatment with any other systemic anticancer therapy or concomitant treatment with any drug on the prohibited medication list, history of uncontrolled or symptomatic angina, arrhythmias, or congestive heart failure, history of another malignancy within the last 5 years with the exception of completely resected basal or squamous cell skin cancer or successfully treated in-situ carcinoma, history of non-invasive lesion or in-situ carcinoma, including in the head and neck region that was successfully treated with surgery, peripheral neuropathy (grade 2 or above), clinical hearing loss, history of allergic reactions to appropriate antiemetics, human immunodeficiency virus infection. The protocol was approved by the institutional review boards or ethics committees of all participating centres. The study was carried out in accordance with the protocol, the principles expressed in the Declaration of Helsinki, and applicable regulatory requirements. All patients provided written informed consent in advance of study-specific procedures. […]
# [3] = tested on: locally advanced squamous cell cancer of the head and neck (LA-SCCHN); assay: Double-blind randomised placebo-controlled Phase II study of Debio 1143 + CRT: safety
# Method: A double-blind randomized placebo-controlled Phase II study was conducted. […] All subjects received 100 mg/m^2 cisplatin on day 2 of each three-week cycle (up to three cycles) concomitantly with radiotherapy (RT). The subjects also received standard fractionation RT with 2 Gy/daily on five days/week for seven weeks up to 70 Gy delivered to the gross-tumor volume (GTV) and 50 Gy to eligible lymph nodes loco-regionally.
# Conventional fractionated intensity modulated radiotherapy (IMRT) was delivered to the gross tumour volume (GTV, [primary tumour and involved nodes]), to a total dose of 70 Gy in 2 Gy daily fractions, for 5 days per week over 7 weeks. Primary and neck nodal areas with no tumour involvement (elective/prophylactic irradiation areas) received a total dose of 50 Gy. In accordance with the European Society of Medical Oncology guidelines, patients received prophylactic treatment with granisetron or palonosetron, dexamethasone and aprepitant, prior to and after cisplatin to prevent renal damage and emesis.
# Medical history and demographics were collected at screening. Physical examination was conducted at screening, on day 1 of each cycle, at the end of study visit, at the safety follow-up visit and at each subsequent efficacy follow-up visit. Adverse events and co-medication were monitored throughout the study from signature of informed consent (28 days prior to the first dose) until 30 days after the last dose of study drug. Adverse events were graded according to Common Terminology Criteria for Adverse Events (NCI CTCAE) version 4⋅03. All information pertaining to unusual manifestations or adverse events was collected by the investigator at each visit. […] Late toxicities were defined in the protocol and monitored throughout the efficacy follow-up period until the end of study visit.
# [4] = as of 21 Jul. 2020, median follow-up 33 months
# [5] = first tumour evaluation, approximately 11 weeks after chemoradiotherapy
# [6] = six months post chemoradiotherapy
# [7] = two-year follow-up, data cut off 15 Jul. 2019
smiles,measurement,setting,value
"CN[C@@H](C)C(=O)N[C@H]1CN(C(=O)CC(C)C)CC[C@H]2CC[C@@H](C(=O)NC(c3ccccc3)c3ccccc3)N2C1=O [Debio 1143, (5S,8S,10aR)—N-benzhydryl-5-[[(2S)-2-(methylamino)propanoyl]amino]-3-(3-methylbutanoyl)-6-oxo-1,2,4,5,8,9,10,10a-octahydropyrrolo[1,2-a][1,5]diazocine-8-carboxamide]",efficacy versus CRT+placebo,[1]; high risk LA-SCCHN subjects,significantly improves efficacy
same,maximum tolerated dose (MTD),"[1]; oral daily for 14 days every three weeks, with cisplatin 100 mg/m^2 and RT 70 Gy",200 mg
same,Locoregional control rate at 18 months after CRT,[2],54%
same,Locoregional control rate at 18 months after CRT,[2]; listed as Debio 1143 + CRT,54.2%
same,Odds Ratio for locoregional control at 18 months (Debio 1143 vs Placebo),[2]; N = 48 per arm,2.69
same,3 years OS rate,[2]; as of 21 Jul. 2020,66%
same,Kaplan-Meier estimate of locoregional control at 36 months after the end of chemoradiotherapy,[2]; as of 21 Jul. 2020,78%
same,"hazard ratio, duration of locoregional control vs placebo",[2]; as of 21 Jul. 2020,0.47
same,median duration of locoregional control,[2]; as of 21 Jul. 2020,not reached
same,probability of PFS at 36 months,[2]; as of 21 Jul. 2020,72%
same,reduction of the risk of disease progression or death vs placebo,[2]; as of 21 Jul. 2020,66%
same,"hazard ratio, PFS vs placebo","[2]; as of 21 Jul. 2020, 36 months of follow up",0.34
same,"hazard ratio, overall survival vs placebo",[2]; [4],0.49
same,median OS,[2]; [4],not reached
same,reduction of the risk of mortality vs placebo,[2]; [4],51%
same,median overall survival,[2]; by 24 months,not yet reached
same,Kaplan-Meier estimate of locoregional control at 18 months after the end of chemoradiotherapy,[2]; data cut off 15 Jul. 2019,78%
same,"hazard ratio, duration of locoregional control vs placebo",[2]; data cut off 15 Jul. 2019,0.53
same,median duration of locoregional control,[2]; data cut off 15 Jul. 2019,not reached
same,median progression-free survival,[2]; data cut off 15 Jul. 2019,not reached
same,proportion of patients progression-free at 24 months,[2]; data cut off 15 Jul. 2019,72%
same,complete response,[2]; [5],35%
same,partial response,[2]; [5],27%
same,complete response,[2]; [6],52%
same,partial response,[2]; [6],15%
same,"hazard ratio, overall survival vs placebo",[2]; [7],0.65
same,"hazard ratio, progression-free survival vs placebo",[2]; [7],0.37
same,patients who died,[3]; data cut off 15 Jul. 2019,14 patients
same,grade 3 bilirubin increases,[3]; in vivo,no grade 3 bilirubin increases
same,grade 4 transaminase increases,[3]; in vivo,no grade 4 transaminase increases
same,patients with alanine aminotransferase increase leading to dose reduction,[3]; most common event leading to dose reduction,10%
same,patients who discontinued Debio 1143,[3]; of 48 patients,15%
same,patients with adverse events of at least grade 3,[3]; of 48 patients,85%
same,patients with grade 1-2 tinnitus,[3]; of 48 patients,31%
same,patients with grade 4 events,[3]; of 48 patients,19%
same,patients with grade 5 events,[3]; of 48 patients,none
same,patients with serious treatment-emergent adverse events,[3]; of 48 patients,63%
same,patients with treatment-emergent adverse events leading to dose reductions of Debio 1143,[3]; of 48 patients,19%
same,late toxicities,"[3]; onset >60 days after CRT end, vs placebo",very similar and not increased; also recorded: late toxicity was balanced
same,frequency or severity of cisplatin-associated adverse events,"[3]; renal insufficiency, febrile neutropenia, thrombocytopenia, peripheral sensory neuropathy, severe vomiting, exception grade 1-2 tinnitus",did not increase the frequency or severity
same,overall safety and tolerability of Debio 1143 added to chemoradiotherapy,[3]; vs placebo + CRT,well tolerated; also recorded: remained unchanged
same,grade 3 increases in aspartate aminotransferase and alanine aminotransferase,[3]; vs placebo group,higher
same,incidence of grade 3 anaemia,[3]; vs placebo group,higher incidence
same,incidence of grade 4 neutropenia,[3]; vs placebo group,higher incidence
